pIC50: −log10 of the molar value. Where two headings read alike, the source gives them in different places.
How the values were obtained:
[1] = system: bovine aortic vascular endothelial cells; assay: Vascular endothelial cell growth promoting action (BrdU uptake); format: cell-based; conditions: 20 hours
Method: This test used bovine aortic vascular endothelial cells (passage number 3) as cells, and MEM containing 10% FCS (fetal calf serum), 100 units/mL penicillin G, and 100 μg/mL streptomycin as a culture medium. […] Culture was performed for 20 hours at 37° C. and 5% CO2, and then the effect of the compounds on vascular endothelial cell growth was measured using “Cell Growth ELISA, BrdU Color Development Kit” (Boehringer Mannheim) (uptake of 5-bromodeoxyuridine (BrdU) was adopted as an indicator).

[2] = system: bovine aortic vascular endothelial cells
Method: A test was conducted to investigate the interaction of the compounds of the invention with vascular endothelial growth factor (VEGF). As the VEGF, human recombinant VEGF was used (Vascular Endothelial Growth Factor, Human, Recombinant, For Biochemical Use: a product of Wako Pure Chemical Industries).
The test was conducted in the same manner as in Example 12, but VEGF (final concentration 10 ng/mL) was added simultaneously with the addition of the compound. As comparative tests, a VEGF single addition test (a test in which only VEGF was added) and a negative control test (a test in which neither the compound nor VEGF was added) were performed. The effect on vascular endothelial cell growth was measured in the same way as in Example 12.
The vascular endothelial cell growth promoting action of each of the compounds was evaluated from the following equation:
Promoting rate (%)={(Increase in the BrdU uptake in the compound addition test)/(Increase in the BrdU uptake in the negative control test)}×100

[3] = system: rabbit platelet rich plasma; conditions: read-out: 50% Inhibitory Concentration; collagen-induced platelet aggregation, rabbit PRP
Method: Blood was taken from the rabbit aorta in an amount of 9 volumes of the blood per volume of a 3.8% aqueous solution of sodium citrate. The blood sample was immediately centrifuged (50×g, 10 min, room temperature) to obtain platelet rich plasma (PRP) as a supernatant. […] The mixture was held for 1 minute at 37° C., and then 10 μL of 10 μg/mL collagen (bovine tendon collagen: a product of Meiji Yakuhin) was added as an aggregation inducer. An aggregation curve was recorded for 7 minutes after addition.

[4] = compound concentration 0.1 μg/mL
[5] = compound concentration 0.5 μg/mL
[6] = compound concentration 10 μg/mL
[7] = compound concentration 0.1 μg/mL + VEGF 10 ng/mL
[8] = compound concentration 0.5 μg/mL + VEGF 10 ng/mL
[9] = compound concentration 1 μg/mL + VEGF 10 ng/mL
[10] = compound concentration 5 μg/mL + VEGF 10 ng/mL
[11] = compound concentration 10 μg/mL + VEGF 10 ng/mL

4-deoxy-α-L-threo-hexa-4-enepyranuronosyl-(1→3)-O-2-acetamide-2-deoxy-β-D-glucopyranosyl-(1→4)-3-O-β-D-glucopyranuronic acid [Compound Example 7]
Promoting rate [1, 4]: 104.8%
Promoting rate [1, 5]: 139.7%
Promoting rate ([1]; compound concentration 1 μg/mL): 172.6%
Promoting rate ([1]; compound concentration 5 μg/mL): 170.0%
Promoting rate [1, 6]: 129.7%
Promoting rate [2, 7]: 165.0%
Promoting rate [2, 8]: 206.2%
Promoting rate [2, 9]: 235.9%
Promoting rate [2, 10]: 228.7%
Promoting rate [2, 11]: 191.3%

4-deoxy-α-L-threo-hexa-4-enepyranuronosyl-(1→3)-O-2-acetamide-2-deoxy-β-D-glucopyranosyl-(1→4)-3-O-β-D-glucopyranuronitol [Compound Example 9]
Promoting rate [1, 4]: 102.8%
Promoting rate [1, 5]: 139.5%
Promoting rate ([1]; compound concentration 1 μg/mL): 180.3%
Promoting rate ([1]; compound concentration 5 μg/mL): 179.3%
Promoting rate [1, 6]: 133.4%
Promoting rate [2, 7]: 159.8%
Promoting rate [2, 8]: 200.2%
Promoting rate [2, 9]: 245.6%
Promoting rate [2, 10]: 244.2%
Promoting rate [2, 11]: 196.8%

4-deoxy-α-L-threo-hexa-4-enepyranuronosyl-(1→3)-O-2-acetamide-2-deoxy-β-D-glucopyranosyl-(1→4)-3-O-β-D-glucopyranuronosyl-(1→3)-O-2-acetamide-2-deoxy-β-D-glucopyranitol [Compound Example 5]
Promoting rate [1, 4]: 101.1%
Promoting rate [1, 5]: 144.2%
Promoting rate ([1]; compound concentration 1 μg/mL): 182.7%
Promoting rate ([1]; compound concentration 5 μg/mL): 169.9%
Promoting rate [1, 6]: 141.1%
Promoting rate [2, 7]: 160.9%
Promoting rate [2, 8]: 205.0%
Promoting rate [2, 9]: 243.8%
Promoting rate [2, 10]: 231.1%
Promoting rate [2, 11]: 200.4%

4-deoxy-α-L-threo-hexa-4-enepyranuronosyl-(1→3)-O-2-acetamide-2-deoxy-β-D-glucopyranosyl-(1→4)-3-O-β-D-glucopyranuronosyl-(1→3)-O-2-acetamide-2-deoxy-β-D-glucopyranose [Compound Example 1]
pIC50 [3]: 5.57

4-deoxy-α-L-threo-hexa-4-enepyranuronosyl-(1→3)-O-2-acetamide-2-deoxy-β-D-glucopyranosyl-(1→4)-3-O-β-D-glucopyranuronosyl-(1→3)-O-2-acetamide-2-deoxy-β-D-glucopyranosyl-(1→4)-3-O-β-D-glucopyranuronic acid [Compound Example 8]
pIC50 [3]: 8.42
Promoting rate [1, 4]: 103.3%
Promoting rate [1, 5]: 140.9%
Promoting rate ([1]; compound concentration 1 μg/mL): 181.1%
Promoting rate ([1]; compound concentration 5 μg/mL): 168.7%
Promoting rate [1, 6]: 141.3%
Promoting rate [2, 7]: 168.7%
Promoting rate [2, 8]: 202.9%
Promoting rate [2, 9]: 251.2%
Promoting rate [2, 10]: 224.9%
Promoting rate [2, 11]: 199.2%

4-deoxy-α-L-threo-hexa-4-enepyranuronosyl-(1→3)-O-2-acetamide-2-deoxy-β-D-glucopyranosyl-(1→4)-3-O-β-D-glucopyranuronosyl-(1→3)-O-2-acetamide-2-deoxy-β-D-glucopyranosyl-(1→4)-3-O-β-D-glucopyranuronosyl-(1→3)-O-2-acetamide-2-deoxy-β-D-glucopyranitol [Compound Example 6]
pIC50 [3]: 8.57
Promoting rate [1, 4]: 100.5%
Promoting rate [1, 5]: 143.8%
Promoting rate ([1]; compound concentration 1 μg/mL): 167.9%
Promoting rate ([1]; compound concentration 5 μg/mL): 168.8%
Promoting rate [1, 6]: 142.2%
Promoting rate [2, 7]: 159.8%
Promoting rate [2, 8]: 205.2%
Promoting rate [2, 9]: 232.2%
Promoting rate [2, 10]: 224.8%
Promoting rate [2, 11]: 205.7%

4-deoxy-α-L-threo-hexa-4-enepyranuronosyl-(1→3)-O-2-acetamide-2-deoxy-β-D-glucopyranosyl-(1→4)-3-O-β-D-glucopyranuronosyl-(1→3)-O-2-acetamide-2-deoxy-β-D-glucopyranosyl-(1→4)-3-O-β-D-glucopyranuronosyl-(1→3)-O-2-acetamide-2-deoxy-β-D-glucopyranose [Compound Example 2]
pIC50 [3]: 8.49

VEGF
Promoting rate ([2]; VEGF added alone, 10 ng/mL (compound concentration 0)): 148.5%
